“Also recorded” adds a separate entry of the source. Like-named read-outs stand apart in the source and are kept apart here.
Columns and labels:
[1] = Formation of NPT 15392 on incubation with Vero cells (HPLC); assay type: in vitro ADME, African Green Monkey; conditions: monkey, 24 hrs.
Description: (§1) | ^a Determined using HPLC

Vero Cells = experiment: as above; assay type: in vitro ADME, African Green Monkey; conditions: 0 hrs.
Description: as §1

[2] = system: IgM antibody production to sheep red blood cells; experiment: IgM antibody formation in SRBC-immunized Balb/c mice (immunoplaque assay, in vivo); conditions: for Immunomodulating (in vivo) IgM formation (in words): SRBC immunized mice
Description: 4. Enhancement of IgM antibody formation in mice immunized with sheep red blood cells (SRBC) (in vivo).
4. NPT 15457 and NPT 15458 and the "active" drug, NPT 15392, were given to Balb/c mice who had been immunized with sheep red blood cells SRBC. Antibody production to SRBC was measured. […] NPT 15392, at the levels studied, produce a 46% increase in IgM production. Higher doses of NPT 15392 will cause less of an increase or decrease over control values. […] This is to be expected since NPT 15458 produces very high levels of NPT 15392 which are most likely inhibitory to IgM formation.
1. Mice are immunized as follows: sheep blood (sheep #23) is received weekly from Hyland Labs. It is aseptically collected in two volumes of Alseviers to one volume of blood.
2. Five-tenths ml of the sheep blood in Alseviers is washed three times in sterile PBS in an IEC clinical centrifuge, setting #4 (2800 rpm) for 10 min. at room temperature.
3. The pellet is resuspended in 1:10 in sterile PBS.
4. A model Z Coulter counter is calibrated according to Coulter Instruction Manual.
5. A […] dilution is needed for a Coulter counter cell count and is obtained by first making a 1:100 dilution in PBS and then diluting this solution 1:10 in isoton. The Coulter counter threshold is adjusted to setting #5.
6. The cell count is determined and the stock solution is diluted to 4×10^7 cells/ml. This final suspension is used for immunization.
7. Each mouse is immunized by i.v. injection into the lateral tail vein (warmed in a 50° C. water bath for veinous dilation) with 0.1 ml SRBC suspension; the final concentration of SRBC's is 4×10^6 per mouse.
1. Mice are treated by i.p. injection on days 0, 1, 2 and 3. A syringe (1 cc) is fitted with a one-half inch, 26 gauge needle. The needle is introduced at a 45° angle along the right side of the linea alba. A 0.2 ml volume is given to both drug and control treated groups.
2. Drug groups are given 0.2 ml of a desired concentration NPT 15392 solution which, for a 20 g mouse, is 5 μg/ml.
1. Spleens are removed aseptically and placed individually in Falcon #2025 tissue culture tubes containing 3 ml MEM. The tubes are then stored on ice.
2. Spleens are homogenized in the same tube with a teflon pestle attached to a G. K. Heller variable speed reversible motor connected with a G. K. Heller GT-21 motor controller setting #6.
3. The homogenization time and action should be uniform from sample to sample.
4. Samples are then filtered through a 100 mesh 40 micron stainless screen into a standard tissue culture tube. The screen is rinsed with 3 ml MEM and the cell suspension is stored on ice.
5. A 1:1000 dilution is made for a Coulter counter cell count and is obtained by first making a 1:100 dilution in PBS followed by a 1:10 dilution in isoton.
6. The cell count is obtained and the stock suspension is diluted to 1×10^7 cells/ml. The Coulter counter threshold is set at 10. Red cells are lysed with three drops of Zap isoton.
Agar plates are removed from regrigerator and allowed to warm to room temperature. They are labeled in triplicate for each experimental group.
2. Agar-filled tubes are removed from the water bath. One-tenth of the 10% SRBC's and 0.1 ml spleen cell suspension are added to each agar tube. The tubes are agitated on a Vortex mixer.
3. The contents of the tubes are poured immediately into agar base plates and swirled until a smooth layer is formed. The plates are placed on a level surface until the agar solidifies.
4. The plates are incubated at 37° C. in a humidified atmosphere of 5% CO2 and 95% air for 90 min.
5. Guinea pig complement (see preparation, section D) is removed from freezer, thawed at room temperature and diluted 1:10 in PBS.
6. Plates are removed from incubator and 1 ml of the diluted complement is added to each plate.
7. Plates are then incubated another 30-45 minutes at 37° C. Plates are then removed from incubator and counted using oblique light.
8. […]

[3] = Chemical stability at varying pH, conversion to NPT 15392 (HPLC); assay type: physicochemical; conditions: for Chemical stability (in words): 37° C., neutral pH; for degraded at 3.5 h, 360 µM: 3.5 hours incubation at 37° C., 0.36 μm/ml
Description: Compound (conc.) % of NPT 15392*
*3.5 hours incubation at 37° C., determined using HPLC

[4] = system: Influenza virus (A sub-type)
HPBL = experiment: Formation of NPT 15392 on incubation with human peripheral blood lymphocytes (HPLC); assay type: in vitro ADME; conditions: HPBL, 0 hrs.
Description: as §1

[5] = as above; assay type: in vitro ADME; conditions: human, peripheral blood lymphocytes
Description: as §1

HPBL (active E-rosettes) = experiment: Enhancement of active E-rosette formation in HPBL (in vitro); assay type: cell-based, human; conditions: for Immunomodulating (in vitro) Rosette, change: Table 11 summary; for Immunomodulating (in vitro) rosette formation (in words): active rosettes, HPBL
Description: 3. Enhancement of active rosette formation (in vitro).
3. As can be noted from Table 7, both NPT 15457 and NPT 15458 are effective in modulating active rosette formation in HPBL. […] In Experiment #2, placebo-treated controls have abnormally high values for active rosettes.
1. Ten to 40 ml of whole blood is drawn from healthy volunteers in heparinized tubes.
2. Lymphocytes are separated from the above blood using Ficoll-hypaque separation techniques.
3. Various concentration of test compound are prepared in RPMI-1640.
4. The concentration of lymphocytes are adjusted to 2×10^6 /ml of RPMI-1640.
5. Lymphocytes are incubated with test compound for 90 minutes at 37° C.
6. Sheep Red Blood Cells (SRBC.s) (one to two weeks old) are washed 3 times with PBS and diluted to a final concentration of 0.5% inj RPMI-1640.
7. Reaction tubes are set up containing the following:
8. The above reactants are centrifuged at 200×g for 5 minutes at room temperature.
9. The sediment is then gently resuspended and a […] sample placed in a hemocytometer.
10. The number of rosettes are then counted using a microscope with any lymphocyte having 3 or more attached red cells being counted as a rosette.

[6] = Expt 1, 1.8 n moles/kg × 4 i.p., all p ≤ 0.01 vs placebo
[7] = Expt 1, 1.8 n moles/kg × 4 i.p., control 28 ± 2
[8] = Expt 2, .18 n moles/kg × 4 i.p., NPT 15392 and NPT 15458 p ≤ 0.01 vs placebo
[9] = Expt 2, .18 n moles/kg × 4 i.p., control 46 ± 2
[10] = HPBL, 24 hrs., read-out: % of NPT 15392
[11] = Table 11 summary, read-out: Convertible to NPT 15392, Biological: HPBL
[12] = Experiment #1, 3.6 n moles/ml, placebo 9.23 ± 2.9, NPT 15457 and NPT 15458 p ≤ 0.05 versus placebo
[13] = Experiment #2, 0.36 n moles/ml, placebo 34.2 ± 6.6, NPT 15392 and NPT 15458 p ≤ 0.05 versus placebo

| Compound | metabolised at 24 h [1] | % of NPT 15392 (Vero Cells) | # IgM Plaques % of Control [2, 6] | # IgM Plaques (mean ± S.E.) [2, 7] | # IgM Plaques % of Control [2, 8] | # IgM Plaques (mean ± S.E.) [2, 9] | Immunomodulating (in vivo) IgM formation (in words) [2] | degraded at 3.5 h, 360 µM ([3]; pH 1.0) | degraded at 3.5 h, 360 µM ([3]; pH 7.0) | degraded at 3.5 h, 360 µM ([3]; pH 9.5) | % Inhibition of Influenza Virus Growth ([4]; 3.6 nmoles/ml) | % Inhibition of Influenza Virus Growth ([4]; 10.8 nmoles/ml) | % Inhibition of Influenza Virus Growth ([4]; 36 nmoles/ml) | % Inhibition of Influenza Virus Growth ([4]; .36 nmoles/ml) | % of NPT 15392 (HPBL) | metabolised at 24 h [5, 10] | % Active E-Rosettes (mean ± S.E.) (HPBL (active E-rosettes); [12]) | % Active E-Rosettes (mean ± S.E.) (HPBL (active E-rosettes); [13]) | Immunomodulating (in vitro) Rosette, change (HPBL (active E-rosettes)) | Immunomodulating (in vitro) rosette formation (in words) (HPBL (active E-rosettes)) | further results |
| --- | --- | --- | --- | --- | --- | --- | --- | --- | --- | --- | --- | --- | --- | --- | --- | --- | --- | --- | --- | --- | --- |
| CCCCCC[C@H]([C@H](C)OC(=O)CCC(=O)O)n1cnc2c(=O)[nH]cnc21 (relative stereo) [NPT 15457, Erythro-9-(2-Succinoxy-3-Nonyl) Hypoxanthine] | 0% | 0% | 68% | 19 ± 3 | 102% | 47 ± 3 | less than that of NPT 15458; also recorded: Moderate | 2% | 0% | 8% | 0% | 18% | 13% | 18% | 0% | 18.2% | 24.8 ± 6% | 33.6 ± 2.4% | +166% | as active as NPT 15392 in restoring the depressed immunity to normal levels and Yes | Immunomodulating (in vivo) SRPC-IgM, range ([2]; Table 11 summary, unit not given): 0-60; Chemical stability (in words) [3]: have stability; Chemical conversion to NPT 15392 (in words) ([3]; pH 7.0): No; Chemical conversion to NPT 15392 (in words) ([3]; pH 9.5): basic hydrolysis at pH 9.5 can convert and Yes; metabolised at 24 h [5, 11]: 18% |
| CCCCCC[C@H]([C@H](C)O)n1cnc2c(=O)[nH]cnc21 (relative stereo) [NPT 15392, erythro-9-(2-hydroxy-3-nonyl)-hypoxanthine, reference compound] | 100% | 100% | 146% | 41 ± 4 | 147% | 68 ± 2 | very effective in modulating the production of IgM antibodies and Yes | 100% | 100% | 100% | 30% | 42% | 73% | 20% | 100% | 100% | 16.2 ± 1.0% | 15.4 ± 2.9% | +78% | able to decrease the high levels of normal values and Yes | Immunomodulating (in vivo) SRPC-IgM, change ([2]; Table 11 summary): +46%; Increase in IgM production ([2]; at the levels studied): 46%; Antiviral activity in vitro (in words) [4]: Yes |
| CCCCCC[C@H]([C@H](C)OC(C)=O)n1cnc2c(=O)[nH]cnc21 (relative stereo) [NPT 15458, erythro-9-(2-Acetoxy-3-Nonyl)-Hypoxanthine] | 50% | 0% | 28.5% | 8 ± 1 | 23.9% | 11 ± 1 | produces an inhibition of IgM formation and very effective in modulating the production of IgM antibodies and Yes | 8% | 0% | 28% | 40% | 80% | 88% | 26% | 0% | 100% | 19.4 ± 1.0% | 23.25 ± 1.24% | +11% | as active as NPT 15392 in restoring the depressed immunity to normal levels and able to decrease the high levels of normal values and Yes | Immunomodulating (in vivo) SRPC-IgM, change ([2]; Table 11 summary): -72%; Chemical stability (in words) [3]: have stability; Chemical conversion to NPT 15392 (in words) ([3]; pH 7.0): No; Chemical conversion to NPT 15392 (in words) ([3]; pH 9.5): basic hydrolysis at pH 9.5 can convert and Yes; Cleavage to NPT 15392 (in words) ([4]; hemadsorption assay): almost completely cleaved to NPT 15392; Antiviral activity in vitro (in words) [4]: Yes; metabolised at 24 h [5, 11]: 100% |
